Consider 19 compounds from patent US9073821B2, “Hydroxamic acid derivative” (priority 2010, dated 2015).

Values after ≈ are worked out from the molar mass of the structure shown. Read-outs that look alike come from different tables or passages of the source. Bounds are passed on as bounds.

One assay addresses E. coli LpxC enzyme (Escherichia coli (strain K12), UniProt P0A725). In words: Inhibitory activity on E. coli LpxC enzyme (fluorescamine assay). The class given is biochemical. Particulars: Table 4. As to the method: Test 2: Evaluation of the Inhibitory Activity on E. coli LpxC Enzyme
An inhibition curve was constructed for each test compound by performing the aforementioned reaction at varying concentrations of the test compound. From this inhibition curve, the concentration of the test compound at which the formation of the reaction product was suppressed by 50% was determined as the IC50 of the test compound, which was an index for the inhibitory activity on E. coli LpxC enzyme.

A further assay relates to E. coli strain ATCC25922. In words: Antimicrobial activity, MIC by broth microdilution. It counts as cell-based. The following applies: Escherichia coli, Table 4, 35° C., 18 hours, read-out: E. coli ATCC 25922 strain MIC. The source says:
(§1) Test 3: Evaluation of Antimicrobial Activity For minimum inhibitory concentration (MIC) measurement, the following broth microdilution method was applied as adapted from the standard procedure recommended by the CLSI (Clinical and Laboratory Standards Institute). The bacteria used were Pseudomonas aeruginosa strain TS88 (clinical isolate), E. coli strain ATCC25922, and Klebsiella pneumoniae strain ATCC13883. After culture overnight on a heart infusion agar medium, the cells of a test bacterium were scraped off and suspended to give a turbidity of level 0.5 on the McFarland scale; the suspension was then diluted 10 fold to prepare an inoculum solution. A 0.005 mL aliquot of the inoculum solution was inoculated in a cation-adjusted Mueller-Hinton broth medium containing a test compound and cultured at 35° C. for 18 hours. A minimum drug concentration at which no cell growth was visible to the naked eye was designated as MIC.
For orientation: Dilution methods test growth across graded concentrations, often in twofold steps.

Assay [1] relates to Pseudomonas aeruginosa strain TS88 (clinical isolate). As to the kind of experiment: Antimicrobial activity, MIC by broth microdilution. It counts as cell-based. Particulars: Table 4, 35° C., 18 hours, read-out: Pseudomonas aeruginosa TS88 strain MIC.
Description: as §1

Assay [2] concerns Klebsiella pneumoniae strain ATCC13883. In words: Antimicrobial activity, MIC by broth microdilution. The following applies: Table 4, 35° C., 18 hours, read-out: Klebsiella pneumoniae ATCC 13883 strain MIC. It counts as cell-based.
Description: as §1

The target of assay [3] is Pseudomonas aeruginosa LpxC enzyme (Pseudomonas aeruginosa (strain ATCC 15692 / DSM 22644 / CIP 104116 / JCM 14847 / LMG 12228 / 1C / PRS 101 / PAO1), UniProt P47205). In words: biochemical. The class given is biochemical.
[4] abbreviates: Table 4, read-out: Pseudomonas aeruginosa LpxC IC50.
[5] abbreviates: inhibitory activity on Pseudomonas aeruginosa LpxC enzyme, class symbols A/B/C, read-out: Enzyme inhibitory activity.
[6] abbreviates: class symbols A/B/C by IC50, Table 3, read-out: Enzyme inhibitory activity (inhibitory activity on Pseudomonas aeruginosa LpxC enzyme).

Chain of E. coli LpxC enzyme (P0A725 whole entry): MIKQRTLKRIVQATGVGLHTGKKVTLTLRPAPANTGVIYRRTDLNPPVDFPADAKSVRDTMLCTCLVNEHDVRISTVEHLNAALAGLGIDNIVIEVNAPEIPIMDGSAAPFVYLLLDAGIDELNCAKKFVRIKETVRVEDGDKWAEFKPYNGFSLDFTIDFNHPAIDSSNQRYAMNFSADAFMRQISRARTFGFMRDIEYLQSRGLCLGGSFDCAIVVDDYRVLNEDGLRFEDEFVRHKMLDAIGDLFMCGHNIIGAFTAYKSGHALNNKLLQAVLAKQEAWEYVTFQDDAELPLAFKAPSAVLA

In turn, `CNC(=O)[C@@](C)(C(=O)NO)N(C)C(=O)c1ccc(C#Cc2ccc(CN3CC(OC)C3)cc2)cc1` [Compound 567, (2S)-N-hydroxy-2-[{[4-({4-[(3-methoxyazetidin-1-yl)methyl]phenyl}ethynyl)phenyl]carbonyl}(methyl)amino]-N′,2-dimethylpropanediamide] registered an IC50 on E. coli LpxC enzyme of 177 nM. Also, the MIC (in general, the smallest concentration in the dilution series that meets the test's criterion for growth inhibition) with E. coli strain ATCC25922 came out at 0.5 µg/mL (≈ 1.04 µM); in assay [1] it was 1 µg/mL (≈ 2.09 µM); in assay [2] it was 2 µg/mL (≈ 4.18 µM).
As for `CNC(=O)C(C(=O)NO)N(C)C(=O)c1ccc(/C=C/C#Cc2ccc(CNC3CC3)cc2)cc1` (centres unmarked) [Compound 477, 2-[({4-[(1E)-4-{4-[(cyclopropylamino)methyl]phenyl}but-1-en-3-yn-1-yl]phenyl}carbonyl)(methyl)amino]-N-hydroxy-N′-methylpropanediamide], the IC50 in assay [3] (setting [4]) is 4.3 nM; in assay [3] (setting [5]), < 10 nM; against E. coli LpxC enzyme it was 33 nM. The MIC amounted to 0.25 µg/mL (≈ 0.543 µM) with E. coli strain ATCC25922, 0.5 µg/mL (≈ 1.09 µM) in assay [1] and 1 µg/mL (≈ 2.17 µM) in assay [2].
Take `CCOC1CN(Cc2ccc(C#Cc3ccc(C(=O)N(C)[C@@](C)(C(=O)NC)C(=O)NO)cc3)cc2)C1` [Compound 557, (2S)-2-[{[4-({4-[(3-ethoxyazetidin-1-yl)methyl]phenyl}ethynyl)phenyl]carbonyl}(methyl)amino]-N-hydroxy-N′,2-dimethylpropanediamide]: the IC50 in assay [3] (setting [4]) was 2.3 nM; in assay [3] (setting [6]) it was < 10 nM; against E. coli LpxC enzyme, 108 nM. In addition, the results for the minimal inhibitory concentration (MIC) (with E. coli strain ATCC25922; in assay [1]; in assay [2]) were 0.25 µg/mL (≈ 0.508 µM), 0.5 µg/mL (≈ 1.02 µM) and 1 µg/mL (≈ 2.03 µM), respectively.
In turn, `CNC(=O)[C@@](C)(C(=O)NO)N(C)C(=O)c1ccc(C#Cc2ccc(CCN3CCOCC3)cc2)cc1` [Compound 410, (2S)-N-hydroxy-N′,2-dimethyl-2-(methyl {[4-({4-[2-(morpholin-4-yl)ethyl]phenyl}ethynyl)phenyl]carbonyl}amino)propanediamide] displayed an IC50 against E. coli LpxC enzyme of 78 nM. The figures for the minimum inhibitory concentration (MIC) (with E. coli strain ATCC25922; in assay [1]; in assay [2]) were 0.25 µg/mL (≈ 0.508 µM), 1 µg/mL (≈ 2.03 µM) and 1 µg/mL (≈ 2.03 µM), respectively.
At E. coli LpxC enzyme, `CCOc1ccc(-c2ccc(C(=O)N(C)[C@@](C)(C(=O)NC)C(=O)NO)cc2)cc1` [Compound 399, (2S)-2-{[(4′-ethoxybiphenyl-4-yl)carbonyl](methyl)amino}-N-hydroxy-N′,2-dimethylpropanediamide] yielded an IC50 of 13 nM. The MIC came out at 0.125 µg/mL (≈ 0.313 µM) with E. coli strain ATCC25922, 0.5 µg/mL (≈ 1.25 µM) in assay [1] and 0.5 µg/mL (≈ 1.25 µM) in assay [2].
As for `CNC(=O)[C@@](C)(C(=O)NO)N(C)C(=O)c1ccc(C#Cc2ccc(CN3CC(OCCF)C3)cc2)cc1` [Compound 559, (2S)-2-[({4-[(4-{[3-(2-fluoroethoxy)azetidin-1-yl]methyl}phenyl)ethynyl]phenyl}carbonyl)(methyl)amino]-N-hydroxy-N′,2-dimethylpropanediamide], the figures for the MIC (in the assay on E. coli strain ATCC25922; in assay [1]; in assay [2]) were 0.25 µg/mL (≈ 0.49 µM), 1 µg/mL (≈ 1.96 µM) and 1 µg/mL (≈ 1.96 µM), respectively.
On to `CNC(=O)[C@@](C)(C(=O)NO)N(C)C(=O)c1ccc(-c2ccc(SC)cc2)cc1` [Compound 406, (2S)-N-hydroxy-N′,2-dimethyl-2-(methyl {[4′-(methylsulfanyl)biphenyl-4-yl]carbonyl}amino)propanediamide], for which the values for the MIC (with E. coli strain ATCC25922; in assay [1]; in assay [2]) were 0.125 µg/mL (≈ 0.311 µM), 0.5 µg/mL (≈ 1.25 µM) and 0.5 µg/mL (≈ 1.25 µM), respectively.
Turning to `CNC(=O)[C@@](C)(C(=O)NO)N(C)C(=O)c1ccc(C#Cc2ccc(CNCCF)cc2)cc1` [Compound 554, (2S)-2-[({4-[(4-{[(2-fluoroethyl)amino]methyl}phenyl)ethynyl]phenyl}carbonyl)(methyl)amino]-N-hydroxy-N′,2-dimethylpropanediamide], at E. coli LpxC enzyme, the IC50 was determined as 120 nM. Further, the minimum inhibitory concentration (MIC) stood at 0.5 µg/mL (≈ 1.1 µM) with E. coli strain ATCC25922, 0.5 µg/mL (≈ 1.1 µM) in assay [1] and 1 µg/mL (≈ 2.2 µM) in assay [2].
Take `CNC(=O)[C@@](C)(C(=O)NO)N(C)C(=O)c1ccc(C#Cc2ccc(C3(NC)CC3)cc2)cc1` [Compound 435, (2S)-N-hydroxy-N′,2-dimethyl-2-(methyl {[4-({4-[1-(methylamino)cyclopropyl]phenyl}ethynyl)phenyl]carbonyl}amino)propanediamide]: the MIC in the assay with E. coli strain ATCC25922 amounted to 1 µg/mL (≈ 2.23 µM); in assay [1] it was 1 µg/mL (≈ 2.23 µM); in assay [2], 2 µg/mL (≈ 4.46 µM).
Regarding `CNC(=O)C(C(=O)NO)N(C)C(=O)c1ccc(-c2ccc(C#CCOC)cc2)cc1` (centres unmarked) [Compound 405, N-hydroxy-2-[{[4′-(3-methoxyprop-1-yn-1-yl)biphenyl-4-yl]carbonyl}(methyl)amino]-N′-methylpropanediamide], the values for the IC50 in assay [3] (setting [4]) and in assay [3] (setting [5]) were 2.9 nM and < 10 nM, respectively. Also, the minimum inhibitory concentration (MIC) with E. coli strain ATCC25922 turned out to be 0.5 µg/mL (≈ 1.22 µM); in assay [1], 0.5 µg/mL (≈ 1.22 µM); in assay [2], 4 µg/mL (≈ 9.77 µM).
`CNC(=O)[C@@](C)(C(=O)NO)N(C)C(=O)c1ccc(C#Cc2ccc(CN3CC(C)(OC)C3)cc2)cc1` [Compound 558, (2S)-N-hydroxy-2-[{[4-({4-[(3-methoxy-3-methylazetidin-1-yl)methyl]phenyl}ethynyl)phenyl]carbonyl}(methyl)amino]-N′,2-dimethylpropanediamide] returned an IC50 on E. coli LpxC enzyme of 235 nM. Further, the MIC with E. coli strain ATCC25922 was found to be 0.5 µg/mL (≈ 1.02 µM); in assay [1], 1 µg/mL (≈ 2.03 µM); in assay [2], 2 µg/mL (≈ 4.06 µM).
On the same counts, the results for `CNC(=O)[C@@](C)(C(=O)NO)N(C)C(=O)c1ccc(C#Cc2ccc(CN3CCOCC3)cc2)cc1` [Compound 561, (2S)-N-hydroxy-N′,2-dimethyl-2-{methyl[(4-{[4-(morpholin-4-ylmethyl)phenyl]ethynyl}phenyl)carbonyl]amino}propanediamide] are 30 nM, 0.125 µg/mL (≈ 0.261 µM), 0.5 µg/mL (≈ 1.04 µM) and 0.5 µg/mL (≈ 1.04 µM).
In the case of `CNC(=O)[C@@](C)(C(=O)NO)N(C)C(=O)c1ccc(C#Cc2ccc(CN3CCC(OC)CC3)cc2)cc1` [Compound 565, (2S)-N-hydroxy-2-[{[4-({4-[(4-methoxypiperidin-1-yl)methyl]phenyl}ethynyl)phenyl]carbonyl}(methyl)amino]-N′,2-dimethylpropanediamide], the MIC with E. coli strain ATCC25922 stood at 0.5 µg/mL (≈ 0.987 µM); in assay [1] it was 1 µg/mL (≈ 1.97 µM); in assay [2] it was 2 µg/mL (≈ 3.95 µM).
On the same counts, the results for `CNC(=O)[C@@](C)(C(=O)NO)N(C)C(=O)c1ccc(C#Cc2ccc(CNCc3ccco3)cc2)cc1` [Compound 417, (2S)-2-[({4-[(4-{[(furan-2-ylmethyl)amino]methyl}phenyl)ethynyl]phenyl}carbonyl)(methyl)amino]-N-hydroxy-N′,2-dimethylpropanediamide] are 0.0625 µg/mL (≈ 0.128 µM), 0.5 µg/mL (≈ 1.02 µM) and 0.25 µg/mL (≈ 0.512 µM).
In the case of `CNC(=O)[C@@](C)(C(=O)NO)N(C)C(=O)c1ccc(-c2ccc3c(ccn3C)c2)cc1` [Compound 402, (2S)-N-hydroxy-N′,2-dimethyl-2-(methyl {[4-(1-methyl-1H-indol-5-yl)phenyl]carbonyl}amino)propanediamide], the IC50 against E. coli LpxC enzyme is 4.9 nM. The minimal inhibitory concentration (MIC) amounted to 0.125 µg/mL (≈ 0.306 µM) with E. coli strain ATCC25922, 1 µg/mL (≈ 2.45 µM) in assay [1] and 1 µg/mL (≈ 2.45 µM) in assay [2].
As for `CNC(=O)C(C(=O)NO)N(C)C(=O)c1ccc(C#CC#CC2CC2)cc1` (centres unmarked) [Compound 507, 2-({[4-(4-Cyclopropylbuta-1,3-diyn-1-yl)phenyl]carbonyl}(methyl)amino)-N-hydroxy-N′-methylpropanediamide], the IC50 against E. coli LpxC enzyme was 12 nM. For the same compound, the MIC came to 0.125 µg/mL (≈ 0.354 µM) in the assay on E. coli strain ATCC25922, 0.25 µg/mL (≈ 0.707 µM) in assay [1] and 1 µg/mL (≈ 2.83 µM) in assay [2].
In the case of `CCOC1CN(Cc2ccc(C#Cc3ccc(C(=O)N(C)C(C(=O)NC)C(=O)NO)cc3)cc2F)C1` (centres unmarked) [Compound 563, 2-[{[4-({4-[(3-ethoxyazetidin-1-yl)methyl]-3-fluorophenyl}ethynyl)phenyl]carbonyl}(methyl)amino]-N-hydroxy-N′-methylpropanediamide], the IC50 in assay [3] (setting [6]) was < 10 nM. Also, the minimal inhibitory concentration (MIC) turned out to be 1 µg/mL (≈ 2.01 µM) in the assay with E. coli strain ATCC25922, 1 µg/mL (≈ 2.01 µM) in assay [1] and 4 µg/mL (≈ 8.06 µM) in assay [2].
Regarding `CNC(=O)[C@@](C)(C(=O)NO)N(C)C(=O)c1ccc(C#Cc2ccc(CN3CC4(COC4)C3)cc2)cc1` [Compound 416, (2S)-N-hydroxy-N′,2-dimethyl-2-{methyl[(4-{[4-(2-oxa-6-azaspiro[3.3]hept-6-ylmethyl)phenyl]ethynyl}phenyl)carbonyl]amino}propanediamide], the values for the MIC (with E. coli strain ATCC25922; in assay [1]; in assay [2]) were 0.5 µg/mL (≈ 1.02 µM), 1 µg/mL (≈ 2.04 µM) and 2 µg/mL (≈ 4.08 µM), respectively.
On the same counts, the results for `CNC(=O)[C@@](C)(C(=O)NO)N(C)C(=O)c1ccc(C#Cc2ccc(CNC3CC3)cc2)cc1` [Compound 553, (2S)-2-[{[4-({4-[(cyclopropylamino)methyl]phenyl}ethynyl)phenyl]carbonyl}(methyl)amino]-N-hydroxy-N′,2-dimethylpropanediamide] are 0.25 µg/mL (≈ 0.557 µM), 0.5 µg/mL (≈ 1.11 µM) and 0.5 µg/mL (≈ 1.11 µM).
